Measurements from article PMC9516332 (Frontiers in Oncology, 2022).
Where two headings read alike, the source gives them in different places.

Assays:
134 cancer cell lines = experiment: Cell viability assay (ATPlite, 72 hours), IC50 on cancer cell line panel
AP-1060 (ETV6-NTRK3) = experiment: Cell viability assay; conditions: read-out: IC50 in cell proliferation assay

In the case of `Cc1nc(NC(=O)N2CCC[C@H]2C(N)=O)sc1-c1ccnc(C(C)(C)C(F)(F)F)c1` [alpelisib], the IC50 (134 cancer cell lines; Homo sapiens, MV4-11, read-out: IC50 in cell proliferation assay, MV4-11 cell line (FLT3 ITD)) is reported as 10.5 µM, the IC50 (134 cancer cell lines; Homo sapiens, MeWo, read-out: IC50 in cell proliferation assay, MeWo cell line) is reported as greater than 31.6 µM and the IC50 (134 cancer cell lines; Homo sapiens, NCCIT, read-out: IC50 in cell proliferation assay, NCC-IT cell line) is reported as 8.35 µM. The IC50 (134 cancer cell lines; Homo sapiens, NCI-H82, read-out: IC50 in cell proliferation assay, cell line NCI-H82) was 11.1 µM, the IC50 (134 cancer cell lines; Homo sapiens, NCI-H460, read-out: IC50 in cell proliferation assay, NCI-H460 cell line) was 7.11 µM and the IC50 (134 cancer cell lines; Homo sapiens, NCI-H661, read-out: IC50 in cell proliferation assay, NCI-H661 cell line) was 9.63 µM. The IC50 (134 cancer cell lines; Homo sapiens, NCI-H716, read-out: IC50 in cell proliferation assay, cell line NCI-H716 (FGFR2-COL14A1)) was 0.049 µM, the IC50 (134 cancer cell lines; Homo sapiens, NCI-H1650, read-out: IC50 in cell proliferation assay, NCI-H1650 cell line (EGFR exon19del)) was 18.1 µM and the IC50 (134 cancer cell lines; Homo sapiens, NCI-H1975, read-out: IC50 in cell proliferation assay, NCI-H1975 cell line (EGFR p.L858R + p.T790M)) was 1.49 µM. The IC50 (134 cancer cell lines; Homo sapiens, NCI-H2228, read-out: IC50 in cell proliferation assay, NCI-H2228 cell line (EML4-ALK)) was 4.04 µM, the IC50 (134 cancer cell lines; Homo sapiens, OVCAR-3, read-out: IC50 in cell proliferation assay, cell line OVCAR-3) was 6.11 µM and the IC50 (134 cancer cell lines; Homo sapiens, PFSK-1, read-out: IC50 in cell proliferation assay, cell line PFSK-1) was 0.52 µM. The IC50 (134 cancer cell lines; Homo sapiens, RL95-2, read-out: IC50 in cell proliferation assay, cell line RL95-2 (EGFR p.A289V)) was 18.3 µM, the IC50 (134 cancer cell lines; Homo sapiens, RPMI-7951, read-out: IC50 in cell proliferation assay, cell line RPMI-7951 (BRAF p.V600E)) was 10.1 µM and the IC50 (134 cancer cell lines; Homo sapiens, RS4-11, read-out: IC50 in cell proliferation assay, cell line RS4;11) was 4.25 µM. For the same compound, the IC50 (134 cancer cell lines; Homo sapiens, Rec1, read-out: IC50 in cell proliferation assay, cell line REC-1) was 3.14 µM, the IC50 (134 cancer cell lines; Homo sapiens, SHP77, read-out: IC50 in cell proliferation assay, cell line SHP-77) was greater than 31.6 µM and the IC50 (134 cancer cell lines; Homo sapiens, SK-BR-3, read-out: IC50 in cell proliferation assay, cell line SK-BR-3 (ERBB2 amplification)) was 0.676 µM. It also gave an IC50 (134 cancer cell lines; Homo sapiens, SK-N-AS, read-out: IC50 in cell proliferation assay, cell line SK-N-AS) of 0.065 µM, an IC50 (134 cancer cell lines; Homo sapiens, SK-N-FI, read-out: IC50 in cell proliferation assay, cell line SK-N-FI) of 3.1 µM and an IC50 (134 cancer cell lines; Homo sapiens, SK-N-MC, read-out: IC50 in cell proliferation assay, cell line SK-N-MC) of 2.6 µM. The IC50 (134 cancer cell lines; Homo sapiens, SK-N-SH, read-out: IC50 in cell proliferation assay, cell line SK-N-SH (ALK p.F1174L)) was 0.42 µM, the IC50 (134 cancer cell lines; Homo sapiens, SNU-5, read-out: IC50 in cell proliferation assay, cell line SNU-5 (MET amplification)) was 13.9 µM and the IC50 (134 cancer cell lines; Homo sapiens, SNU-16, read-out: IC50 in cell proliferation assay, cell line SNU-16 (FGFR2 amplification)) was greater than 31.6 µM. The IC50 (134 cancer cell lines; Homo sapiens, SNU-C2B, read-out: IC50 in cell proliferation assay, cell line SNU-C2B (EGFR p.R165Q)) was 7.04 µM, the IC50 (134 cancer cell lines; Homo sapiens, SU-DHL-1, read-out: IC50 in cell proliferation assay, cell line SU-DHL-1 (NPM1-ALK)) was 21.2 µM and the IC50 (134 cancer cell lines; Homo sapiens, SU-DHL-6, read-out: IC50 in cell proliferation assay, cell line SU-DHL-6) was 1.55 µM. For the same compound, the IC50 (134 cancer cell lines; Homo sapiens, SUP-T1, read-out: IC50 in cell proliferation assay, cell line SUP-T1) was 6.02 µM, the IC50 (134 cancer cell lines; Homo sapiens, SW48, read-out: IC50 in cell proliferation assay, cell line SW48 (EGFR p.G719S)) was 1.15 µM and the IC50 (134 cancer cell lines; Homo sapiens, SW480, read-out: IC50 in cell proliferation assay, cell line SW480) was 8.85 µM. The IC50 (134 cancer cell lines; Homo sapiens, SW626, read-out: IC50 in cell proliferation assay, cell line SW626) was 8.63 µM, the IC50 (134 cancer cell lines; Homo sapiens, SW780, read-out: IC50 in cell proliferation assay, cell line SW780 (FGFR3-BAIAP2L1)) was 9.85 µM and the IC50 (134 cancer cell lines; Homo sapiens, SW837, read-out: IC50 in cell proliferation assay, cell line SW837) was 21.9 µM. The IC50 (134 cancer cell lines; Homo sapiens, SW872, read-out: IC50 in cell proliferation assay, cell line SW872 (BRAF p.V600E)) was 18.8 µM, the IC50 (134 cancer cell lines; Homo sapiens, SW900, read-out: IC50 in cell proliferation assay, cell line SW900) was 4.43 µM and the IC50 (134 cancer cell lines; Homo sapiens, SW948, read-out: IC50 in cell proliferation assay, cell line SW948) was 3.3 µM. It also gave an IC50 (134 cancer cell lines; Homo sapiens, SW982, read-out: IC50 in cell proliferation assay, cell line SW982 (BRAF p.V600E)) of 22.6 µM, an IC50 (134 cancer cell lines; Homo sapiens, SW-620, read-out: IC50 in cell proliferation assay, cell line SW620) of 6.94 µM and an IC50 (134 cancer cell lines; Homo sapiens, T98G, read-out: IC50 in cell proliferation assay, cell line T98G) of 7.14 µM. The IC50 (134 cancer cell lines; Homo sapiens, TCC-SUP, read-out: IC50 in cell proliferation assay, cell line TCCSUP) was 1.1 µM, the IC50 (134 cancer cell lines; Homo sapiens, THP-1, read-out: IC50 in cell proliferation assay, cell line THP-1) was 0.117 µM and the IC50 (134 cancer cell lines; Homo sapiens, U2OS, read-out: IC50 in cell proliferation assay, cell line U2OS) was 19.3 µM. It also gave an IC50 (134 cancer cell lines; Homo sapiens, U-87 MG, read-out: IC50 in cell proliferation assay, cell line U-87MG ATCC) of 17.5 µM, an IC50 (134 cancer cell lines; Homo sapiens, U-118-MG, read-out: IC50 in cell proliferation assay, cell line U-118MG) of 16.6 µM and an IC50 (134 cancer cell lines; Homo sapiens, UMUC3, read-out: IC50 in cell proliferation assay, cell line UM-UC-3) of 17.1 µM. It also gave an IC50 (134 cancer cell lines; Hs766T, read-out: IC50 in cell proliferation assay, Hs 766T cell line) of 7.45 µM, an IC50 (134 cancer cell lines; L-82, read-out: IC50 in cell proliferation assay, L-82 cell line (NPM1-ALK)) of 20.5 µM and an IC50 (134 cancer cell lines; Rh30, read-out: IC50 in cell proliferation assay, cell line Rh30) of 3.91 µM. It also gave an IC50 (134 cancer cell lines; read-out: IC50 in cell proliferation assay, 11-18 cell line (EGFR p.L858R)) of 15.5 µM, an IC50 (134 cancer cell lines; read-out: IC50 in cell proliferation assay, Hs 852.T cell line) of 5.79 µM and an IC50 (134 cancer cell lines; read-out: IC50 in cell proliferation assay, JAR cell line) of 23.2 µM. It also gave an IC50 (134 cancer cell lines; read-out: IC50 in cell proliferation assay, cell line 5637) of 12.8 µM, an IC50 (134 cancer cell lines; read-out: IC50 in cell proliferation assay, cell line A-388) of 2.91 µM and an IC50 (134 cancer cell lines; read-out: IC50 in cell proliferation assay, cell line DB) of 23 µM. The IC50 (134 cancer cell lines; read-out: IC50 in cell proliferation assay, cell line DEL (NPM1-ALK)) was 27.8 µM, the IC50 (134 cancer cell lines; read-out: IC50 in cell proliferation assay, cell line ES-2 (BRAF p.V600E)) was greater than 31.6 µM and the IC50 (134 cancer cell lines; read-out: IC50 in cell proliferation assay, cell line PA-1) was 17.6 µM. The IC50 (134 cancer cell lines; read-out: IC50 in cell proliferation assay, cell line PC-3) was 22.7 µM, the IC50 (134 cancer cell lines; read-out: IC50 in cell proliferation assay, cell line RD) was 1.15 µM and the IC50 (134 cancer cell lines; read-out: IC50 in cell proliferation assay, cell line RKO (BRAF p.V600E)) was 11 µM. The IC50 (134 cancer cell lines; read-out: IC50 in cell proliferation assay, cell line RL) was 18.9 µM, the IC50 (134 cancer cell lines; read-out: IC50 in cell proliferation assay, cell line RT-4 (FGFR3-TACC3)) was 0.12 µM and the IC50 (134 cancer cell lines; read-out: IC50 in cell proliferation assay, cell line SR (NPM1-ALK)) was 10.9 µM. It also gave an IC50 (134 cancer cell lines; read-out: IC50 in cell proliferation assay, cell line T24) of 1.08 µM, an IC50 (134 cancer cell lines; read-out: IC50 in cell proliferation assay, cell line TT (RET p.C634W)) greater than 31.6 µM and an IC50 (134 cancer cell lines; read-out: IC50 in cell proliferation assay, cell line VA-ES-BJ) of 5.92 µM. It also gave an IC50 (AP-1060 (ETV6-NTRK3)) of 1.74 µM.
